Here are results for three molecules from ChEMBL document CHEMBL2074083, “Functional characterization of SLCO1B1 (OATP-C) variants, SLCO1B1*5, SLCO1B1*15 and SLCO1B1*15+C1007G, by using transient expression systems of HeLa and HEK293 cells” (Pharmacogenet Genomics, 2005).

Common to all, as to type: functional, cell-based
Data set [1] deals with T1, OATP1B1 (Homo sapiens, UniProt Q9Y6L6).
T1 sequence (Q9Y6L6 whole entry): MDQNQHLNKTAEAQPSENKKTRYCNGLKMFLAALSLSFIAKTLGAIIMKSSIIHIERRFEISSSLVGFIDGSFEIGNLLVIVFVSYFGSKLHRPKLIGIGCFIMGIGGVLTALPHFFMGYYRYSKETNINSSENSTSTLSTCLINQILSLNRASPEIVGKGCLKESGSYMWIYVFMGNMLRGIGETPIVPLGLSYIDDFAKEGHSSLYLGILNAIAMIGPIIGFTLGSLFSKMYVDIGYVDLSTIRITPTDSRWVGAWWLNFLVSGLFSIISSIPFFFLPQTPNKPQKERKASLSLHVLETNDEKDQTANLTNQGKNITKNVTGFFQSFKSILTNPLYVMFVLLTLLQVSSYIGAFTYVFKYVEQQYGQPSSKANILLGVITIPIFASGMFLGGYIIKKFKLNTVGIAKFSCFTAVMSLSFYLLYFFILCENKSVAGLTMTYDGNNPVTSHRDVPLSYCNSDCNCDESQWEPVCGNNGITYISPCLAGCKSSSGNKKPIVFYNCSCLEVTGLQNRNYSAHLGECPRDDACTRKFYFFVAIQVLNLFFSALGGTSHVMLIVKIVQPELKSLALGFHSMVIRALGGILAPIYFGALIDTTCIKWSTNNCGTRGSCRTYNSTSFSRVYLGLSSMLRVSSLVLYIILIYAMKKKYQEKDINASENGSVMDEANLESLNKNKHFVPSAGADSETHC
Description: (§1) TP_TRANSPORTER: uptake in OATP1B1-expressing HEK293 cells. To be noted: HEK293 cells that express OATP1B1.

In data set [2] the target is T2, Solute carrier organic anion transporter family member 1B1 (Homo sapiens, UniProt Q9Y6L6).
T2 sequence (Q9Y6L6 whole entry): T1 sequence (Q9Y6L6 whole entry)
The data set is described as §1. To be noted: hek293.

Substrate in data set [3]: CC[C@H](C)C(=O)O[C@H]1C[C@H](O)C=C2C=C[C@H](C)[C@H](CC[C@@H](O)C[C@@H](O)CC(=O)O)[C@H]21
The data set is described as §1.

With `CC(C)c1c(C(=O)Nc2ccccc2)c(-c2ccccc2)c(-c2ccc(F)cc2)n1CC[C@@H](O)C[C@@H](O)CC(=O)O` [ATORVASTATIN], the Michaelis-Menten constant (Km) (as a rule, the concentration of substrate that gives half-maximal velocity) in data set [1] was found to be 12.4 µM. Consider `COCc1c(C(C)C)nc(C(C)C)c(/C=C/[C@@H](O)C[C@@H](O)CC(=O)O)c1-c1ccc(F)cc1` [CERIVASTATIN], for which, in data set [2], the Activity entry is “substrate [(+)]”.

B1: Solute carrier organic anion transporter family member 1B1 (Homo sapiens) (protein)
chain: T1 sequence (Q9Y6L6 whole entry)
Take B1: the Km in data set [3] worked out at 85.7 µM.
